{
  "source": "ChEMBL document CHEMBL5030557",
  "about": "“Tandem Repeat of a Short Human Chemerin-Derived Peptide and Its Nontoxic d-Lysine-Containing Enantiomer Display Broad-Spectrum Antimicrobial and Antitubercular Activities” (J Med Chem, 2021)",
  "key": {"Escherichia coli [1]": {"tested_on": "Escherichia coli", "assay": "Antimicrobial activity against Escherichia coli ATCC 25922 assessed as inhibition of bacterial growth by broth dilution method", "assay_type": "functional"}, "Bacillus subtilis": {"tested_on": "Bacillus subtilis", "assay": "Antimicrobial activity against Bacillus subtilis ATCC 6633 assessed as inhibition of bacterial growth by broth dilution method", "assay_type": "functional"}, "Klebsiella pneumoniae": {"tested_on": "Klebsiella pneumoniae", "assay": "Antimicrobial activity against Klebsiella pneumoniae ATCC 27736 assessed as inhibition of bacterial growth by broth dilution method", "assay_type": "functional"}, "Pseudomonas aeruginosa [2]": {"tested_on": "Pseudomonas aeruginosa", "assay": "Antimicrobial activity against Pseudomonas aeruginosa ATCC BAA-427 assessed as inhibition of bacterial growth by broth dilution method", "assay_type": "functional"}, "[3]": {"assay": "Retention time of the compound analysed by RP-HPLC analysis", "assay_type": "physicochemical"}, "Staphylococcus aureus [4]": {"tested_on": "Staphylococcus aureus", "assay": "Antimicrobial activity against Staphylococcus aureus ATCC 25923 assessed as inhibition of bacterial growth by broth dilution method", "assay_type": "functional"}, "Staphylococcus aureus [5]": {"tested_on": "Staphylococcus aureus", "assay": "Antimicrobial activity against methicilin- resistant Staphylococcus aureus ATCC 33591 assessed as inhibition of bacterial growth by broth dilution method", "assay_type": "functional"}, "Staphylococcus aureus [6]": {"tested_on": "Staphylococcus aureus", "assay": "Antimicrobial activity against multidrug-resistant Staphylococcus aureus ATCC BAA-44 assessed as inhibition of bacterial growth by broth dilution method", "assay_type": "functional"}, "[7]": {"assay": "Hemolytic activity in human RBC measured after 40 mins", "assay_type": "ADME, tissue-based, Erythrocyte", "details": "red blood cells (RBC)"}, "Escherichia coli [8]": {"tested_on": "Escherichia coli", "assay": "Antibacterial activity against Escherichia coli ATCC 25922 in presence of 10 percent fresh human serum measured after 1 hr", "assay_type": "functional"}, "Escherichia coli [9]": {"tested_on": "Escherichia coli", "assay": "Antibacterial activity against Escherichia coli ATCC 25922 in presence of 4.5 mM KCl measured after 1 hr", "assay_type": "functional"}, "Escherichia coli [10]": {"tested_on": "Escherichia coli", "assay": "Antibacterial activity against Escherichia coli ATCC 25922 in presence of 150 mM NaCl measured after 1 hr", "assay_type": "functional"}, "Escherichia coli [11]": {"tested_on": "Escherichia coli", "assay": "Antibacterial activity against Escherichia coli ATCC 25922 in presence of temperature ranging from 4 to 90 degC measured after 1 hr", "assay_type": "functional"}, "Cell membrane": {"tested_on": "Cell membrane", "assay": "Induction of membrane damage in Escherichia coli assessed as disruption of membrane integrity at 10 uM incubated for 30 min by propidium iodide staining based assay"}, "[12]": {"assay": "Disruption of membrane integrity in human RBC cells assessed as membrane damage at 150 uM incubated for 15 min by Alexa fluor-annexin V staining based assay (reference value: 0%)", "assay_type": "functional, Red blood cell", "details": "0.25 h"}, "Pseudomonas aeruginosa [13]": {"tested_on": "Pseudomonas aeruginosa", "assay": "Antibacterial activity against Pseudomonas aeruginosa BAA 427 assessed as resistance development by measuring fold change in MIC after 30 passages with serially diluted peptides", "assay_type": "functional"}},
  "note": "Active and inactive are the calls of the source. The calls are words filed in the database; no cut-off is given here. Where a SMILES comes first, the peptide text is derived from it.",
  "data": [
    {"smiles": "CC(C)C[C@H](NC(=O)[C@H](CCCNC(=N)N)NC(=O)CNC(=O)[C@H](CC(C)C)NC(=O)[C@@H](NC(=O)[C@@H](CCCCN)NC(=O)[C@@H](NC(=O)[C@H](CC(C)C)NC(=O)[C@H](CCCNC(=N)N)NC(=O)CNC(=O)[C@H](CC(C)C)NC(=O)[C@@H](NC(=O)[C@H](N)CCCCN)C(C)C)C(C)C)C(C)C)C(=O)N[C@H](C(N)=O)C(C)C", "values": [
      {"measurement": "MIC", "setting": "Escherichia coli [1]", "result": 1, "unit": "µM"},
      {"measurement": "MIC", "setting": "Bacillus subtilis", "result": 2, "unit": "µM"},
      {"measurement": "MIC", "setting": "Klebsiella pneumoniae", "result": 4, "unit": "µM"},
      {"measurement": "MIC", "setting": "Pseudomonas aeruginosa [2]", "result": 4, "unit": "µM"},
      {"measurement": "Retention_time", "setting": "[3]", "result": 16.5, "unit": "min"},
      {"measurement": "MIC", "setting": "Staphylococcus aureus [4]", "result": 2, "unit": "µM"},
      {"measurement": "MIC", "setting": "Staphylococcus aureus [5]", "result": 2, "unit": "µM"},
      {"measurement": "MIC", "setting": "Staphylococcus aureus [6]", "result": 2, "unit": "µM"},
      {"measurement": "HC50 at 40 min", "setting": "[7]", "result": 1.93, "unit": "mM"},
      {"measurement": "MIC", "setting": "Escherichia coli [8]", "result": 2, "unit": "µM"},
      {"measurement": "MIC", "setting": "Escherichia coli [9]", "result": 2, "unit": "µM"},
      {"measurement": "MIC", "setting": "Escherichia coli [10]", "result": 1, "unit": "µM"},
      {"measurement": "MIC", "setting": "Escherichia coli [11]", "result": 2, "unit": "µM"},
      {"measurement": "Activity", "setting": "Cell membrane", "result": "Active"},
      {"measurement": "Activity", "setting": "[12]", "result": 13.9, "unit": "%"}
    ]},
    {"smiles": "O=C(O)c1cn(C2CC2)c2cc(N3CCNCC3)c(F)cc2c1=O", "note": "[CIPROFLOXACIN]", "values": [
      {"measurement": "fold change (FC)", "setting": "Pseudomonas aeruginosa [13]", "result": 64}
    ]},
    {"smiles": "CC(C)C[C@H](NC(=O)[C@H](CCCNC(=N)N)NC(=O)CNC(=O)[C@H](CC(C)C)NC(=O)[C@@H](NC(=O)[C@H](CCCCN)NC(=O)[C@@H](NC(=O)[C@H](CC(C)C)NC(=O)[C@H](CCCNC(=N)N)NC(=O)CNC(=O)[C@H](CC(C)C)NC(=O)[C@@H](NC(=O)[C@H](N)CCCCN)C(C)C)C(C)C)C(C)C)C(=O)N[C@H](C(N)=O)C(C)C", "values": [
      {"measurement": "MIC", "setting": "Escherichia coli [1]", "result": 0.5, "unit": "µM"},
      {"measurement": "MIC", "setting": "Bacillus subtilis", "result": 2, "unit": "µM"},
      {"measurement": "MIC", "setting": "Klebsiella pneumoniae", "result": 4, "unit": "µM"},
      {"measurement": "MIC", "setting": "Pseudomonas aeruginosa [2]", "result": 4, "unit": "µM"},
      {"measurement": "Retention_time", "setting": "[3]", "result": 18.8, "unit": "min"},
      {"measurement": "MIC", "setting": "Staphylococcus aureus [4]", "result": 2, "unit": "µM"},
      {"measurement": "MIC", "setting": "Staphylococcus aureus [5]", "result": 1, "unit": "µM"},
      {"measurement": "MIC", "setting": "Staphylococcus aureus [6]", "result": 2, "unit": "µM"},
      {"measurement": "HC50 at 40 min", "setting": "[7]", "result": 0.165, "unit": "mM"},
      {"measurement": "MIC", "setting": "Escherichia coli [8]", "result": 1, "unit": "µM"},
      {"measurement": "MIC", "setting": "Escherichia coli [9]", "result": 4, "unit": "µM"},
      {"measurement": "MIC", "setting": "Escherichia coli [10]", "result": 2, "unit": "µM"},
      {"measurement": "MIC", "setting": "Escherichia coli [11]", "result": 2, "unit": "µM"},
      {"measurement": "Activity", "setting": "Cell membrane", "result": "Active"},
      {"measurement": "Activity", "setting": "[12]", "result": 99.1, "unit": "%"}
    ]},
    {"smiles": "CN(C)[C@@H]1C(O)=C(C(N)=O)C(=O)[C@@]2(O)C(O)=C3C(=O)c4c(O)cccc4C(C)(O)[C@H]3C[C@@H]12", "note": "(stereo not given in full)", "values": [
      {"measurement": "fold change (FC)", "setting": "Pseudomonas aeruginosa [13]", "result": 16}
    ]},
    {"smiles": "CC(C)C[C@H](NC(=O)[C@H](CCCNC(=N)N)NC(=O)CNC(=O)[C@H](CC(C)C)NC(=O)[C@@H](NC(=O)[C@@H](N)CCCCN)C(C)C)C(=O)N[C@H](C(N)=O)C(C)C", "note": "(H-KVLGRLV-NH2)", "values": [
      {"measurement": "MIC", "setting": "Escherichia coli [1]", "result": "> 100", "unit": "µM"},
      {"measurement": "MIC", "setting": "Bacillus subtilis", "result": "> 100", "unit": "µM"},
      {"measurement": "MIC", "setting": "Klebsiella pneumoniae", "result": "> 100", "unit": "µM"},
      {"measurement": "MIC", "setting": "Pseudomonas aeruginosa [2]", "result": "> 100", "unit": "µM"},
      {"measurement": "Retention_time", "setting": "[3]", "result": 8.1, "unit": "min"},
      {"measurement": "MIC", "setting": "Staphylococcus aureus [4]", "result": "> 100", "unit": "µM"},
      {"measurement": "MIC", "setting": "Staphylococcus aureus [5]", "result": "> 100", "unit": "µM"},
      {"measurement": "MIC", "setting": "Staphylococcus aureus [6]", "result": "> 100", "unit": "µM"}
    ]}
  ]
}
